Converted amounts (≈) assume the structure as drawn. The source made the active and inactive calls. The rule behind the calls is not given here.
Columns and labels:
[1] = Stability of the compound at pH 4.4 to 8.6 by electronic absorption spectroscopic analysis; format: physicochemical; conditions: buffer
[2] = Cytotoxicity against African green monkey Vero cells assessed as cell survival at 1.9 ug/ml after 72 hrs by MTS-PMS assay; format: cell-based; conditions: chlorocebus sabaeus, read-out: Survival
[3] = system: Mycobacterium tuberculosis; assay: Antitubercular activity against Mycobacterium tuberculosis H37Rv ATCC 27294 at 6.25 ug/ml after 5 days by MABA method; format: functional; conditions: H37Rv ATCC 27294, 120 h, read-out: GI
[4] = Dissociation constant, pKa of the compound by potentiometric titration method; format: physicochemical
Calf thymus DNA = assay: Induction of calf thymus DNA cleavage at 5 uM by ethidium bromide based agarose gel electrophoresis method; format: nucleic-acid assay; conditions: Bos taurus
[5] = system: Mycobacterium tuberculosis; assay: Antitubercular activity against Mycobacterium tuberculosis H37Rv ATCC 27294 after 5 days by MABA method; format: functional; conditions: H37Rv ATCC 27294, 120 h
[6] = Cytotoxicity against African green monkey Vero cells assessed as cell survival at 3.9 ug/ml after 72 hrs by MTS-PMS assay; format: cell-based; conditions: chlorocebus sabaeus, read-out: Survival
[7] = Cytotoxicity against African green monkey Vero cells assessed as cell survival at 31.2 ug/ml after 72 hrs by MTS-PMS assay; format: cell-based; conditions: chlorocebus sabaeus, read-out: Survival
[8] = Cytotoxicity against African green monkey Vero cells assessed as cell survival at 0.2 ug/ml after 72 hrs by MTS-PMS assay; format: cell-based; conditions: chlorocebus sabaeus, read-out: Survival
[9] = Cytotoxicity against African green monkey Vero cells assessed as cell survival at 0.4 ug/ml after 72 hrs by MTS-PMS assay; format: cell-based; conditions: chlorocebus sabaeus, read-out: Survival
Albumin [10] = molecular target: T1, Albumin (Bos taurus, UniProt P02769); assay: Binding affinity to bovine serum albumin assessed as Stern-Volmer quenching constant in phosphate buffer of pH 7.4 by fluorescence spectroscopic analysis; format: ADME; conditions: cattle, isolated protein
Albumin [11] = molecular target: T1, Albumin; assay: Binding affinity to bovine serum albumin in pH 7.4 phosphate buffer at 27 degC by UV-vis spectroscopic analysis; format: ADME; conditions: cattle, isolated protein
Albumin [12] = molecular target: T1, Albumin; assay: Binding affinity to bovine serum albumin assessed as quenching constant in phosphate buffer of pH 7.4 by fluorescence spectroscopic analysis; format: ADME; conditions: cattle, isolated protein
Albumin [13] = molecular target: T1, Albumin; assay: Binding affinity to bovine serum albumin assessed as association constant in phosphate buffer of pH 7.4 by fluorescence spectroscopic analysis; format: ADME; conditions: cattle, isolated protein
Albumin [14] = molecular target: T1, Albumin; assay: Binding affinity to bovine serum albumin in pH 7.4 phosphate buffer at 27 degC assessed as Gibbs free energy change by UV-vis spectroscopic analysis; format: ADME; conditions: cattle, isolated protein
Albumin [15] = molecular target: T1, Albumin; assay: Binding affinity to bovine serum albumin in pH 7.4 phosphate buffer at 27 degC assessed as association constant by UV-vis spectroscopic analysis; format: ADME; conditions: cattle, isolated protein
[16] = Stability of the compound at pH 4.4 to 8.2 by electronic absorption spectroscopic analysis; format: physicochemical; conditions: buffer
[17] = Cytotoxicity against African green monkey Vero cells assessed as cell survival at 0.9 ug/ml after 72 hrs by MTS-PMS assay; format: cell-based; conditions: chlorocebus sabaeus, read-out: Survival

T1 sequence (P02769 whole entry): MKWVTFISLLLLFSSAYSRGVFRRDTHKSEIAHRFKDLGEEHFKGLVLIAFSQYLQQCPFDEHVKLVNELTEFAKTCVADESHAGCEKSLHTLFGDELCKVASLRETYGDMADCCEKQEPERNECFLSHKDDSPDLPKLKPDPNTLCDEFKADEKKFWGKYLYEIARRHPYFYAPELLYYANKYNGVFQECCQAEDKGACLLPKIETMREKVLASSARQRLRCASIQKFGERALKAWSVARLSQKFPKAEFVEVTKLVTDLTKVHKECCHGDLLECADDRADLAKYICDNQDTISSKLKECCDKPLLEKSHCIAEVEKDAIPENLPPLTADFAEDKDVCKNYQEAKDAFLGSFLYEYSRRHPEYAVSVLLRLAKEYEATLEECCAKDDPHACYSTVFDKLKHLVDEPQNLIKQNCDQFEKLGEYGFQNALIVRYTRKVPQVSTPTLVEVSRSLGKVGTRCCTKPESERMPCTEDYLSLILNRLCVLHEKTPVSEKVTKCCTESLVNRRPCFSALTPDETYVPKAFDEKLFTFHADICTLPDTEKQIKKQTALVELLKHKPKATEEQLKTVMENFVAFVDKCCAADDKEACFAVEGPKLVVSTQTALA

Structure (SMILES) | inhibition of growth at 6.25 µg/mL [3] | pKa [4] | Activity (Calf thymus DNA) | MIC [5] | also measured
COc1ccc2oc(=O)cc(CO/N=C(\C)C(C)=O)c2c1 | 94% | 5.8 | Active | 0.19 µg/mL (≈ 0.657 µM) | Stability [1]: Stable; viability at 72 h, 1.9 ug/ml [2]: 78%
CC(=O)/C(C)=N/OCc1cc(=O)oc2ccc(Cl)cc12 | 26% | 5.4 | Active |  | 
CC(=O)/C(C)=N/OCc1cc(=O)oc2ccc(C)cc12 | 92% | 5.7 | Active | 0.39 µg/mL (≈ 1.43 µM) | Stability [1]: Stable; viability at 72 h, 3.9 ug/ml [6]: 72%
O=c1cc(CSC2=NCCS2)c2cc(Cl)ccc2o1 |  |  |  | 0.09 µg/mL (≈ 0.289 µM) | 
CC(=O)/C(C)=N/OCc1cc(=O)oc2cc(C)ccc12 | 91% | 5.5 | inactive | 0.39 µg/mL (≈ 1.43 µM) | viability at 72 h, 3.9 ug/ml [6]: 59%
CC(=O)/C(C)=N/OCc1cc(=O)oc2c1ccc1ccccc12 | 87% | 5.6 | inactive |  | 
CC(=O)/C(C)=N/OCc1cc(=O)oc2ccc3ccccc3c12 | 90% | 5.6 | Active | 3.12 µg/mL (≈ 10.1 µM) | viability at 72 h, 31.2 ug/ml [7]: 67%
CC(=O)/C(C)=N/OCc1cc(=O)oc2cc(Cl)ccc12 | 21% | 5.4 | inactive |  | 
NNC(=O)c1ccncc1 [ISONIAZID] | 100% | 1.8 to 9.5 |  | 0.02 µg/mL (≈ 0.146 µM) | viability at 72 h, 0.2 ug/ml [8]: 98%
CC(=O)/C(C)=N/OCc1cc(=O)oc2cc(C)cc(C)c12 | 97% | 5.5 | Active | 0.04 µg/mL (≈ 0.139 µM) | viability at 72 h, 0.4 ug/ml [9]: 89%; KSV (Albumin [10]): 6.19 ×10⁴ /mol; Activity (Albumin [11]): Dose-dependent effect; Kq (Albumin [12]): 1.07 ×10¹³ /mol/s; Ka (Albumin [13]): 1.37 ×10⁴ L/mol; deltaG (Albumin [14]): -5.619 kcal/mol; Ka (Albumin [15]): 1.24 ×10⁴ L/mol; Stability [16]: Stable
CC(=O)/C(C)=N/OCc1cc(=O)oc2ccc(Br)cc12 | 81% | 5.4 | Active |  | 
CC(=O)/C(C)=N/OCc1cc(=O)oc2c(C)c(C)ccc12 | 95% | 5.5 | Active | 0.09 µg/mL (≈ 0.313 µM) | Stability [1]: Stable; viability at 72 h, 0.9 ug/ml [17]: 84%

Source: ChEMBL document CHEMBL4229366, “Synthesis and evaluation of novel coumarin-oxime ethers as potential anti-tubercular agents: Their DNA cleavage ability and BSA interaction study” (Eur J Med Chem, 2018)
